Results from publication PMC3296825 (Nature medicine, 2012).

How the values were obtained:
[1] = target: fast skeletal troponin complex (Oryctolagus cuniculus, UniProt P02586+P02643); experiment: isothermal titration calorimetry; type: binding
slow skeletal troponin = slow skeletal troponin (Bos taurus, UniProt G3MYN5+P63315); experiment: isothermal titration calorimetry; type: binding

Sequence of fast skeletal troponin complex (P02586 2-160): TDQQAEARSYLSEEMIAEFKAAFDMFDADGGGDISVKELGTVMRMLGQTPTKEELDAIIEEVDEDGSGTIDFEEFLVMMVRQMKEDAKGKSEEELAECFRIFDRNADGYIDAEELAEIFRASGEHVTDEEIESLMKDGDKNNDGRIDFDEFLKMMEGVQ
Sequence of fast skeletal troponin complex (P02643 2-182): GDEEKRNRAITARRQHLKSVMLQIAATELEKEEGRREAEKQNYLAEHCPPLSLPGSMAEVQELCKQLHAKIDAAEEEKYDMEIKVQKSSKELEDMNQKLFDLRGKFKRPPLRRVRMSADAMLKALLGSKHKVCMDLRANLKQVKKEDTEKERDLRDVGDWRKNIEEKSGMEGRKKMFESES
Sequence of fast skeletal troponin complex (P02641 2-279 partner): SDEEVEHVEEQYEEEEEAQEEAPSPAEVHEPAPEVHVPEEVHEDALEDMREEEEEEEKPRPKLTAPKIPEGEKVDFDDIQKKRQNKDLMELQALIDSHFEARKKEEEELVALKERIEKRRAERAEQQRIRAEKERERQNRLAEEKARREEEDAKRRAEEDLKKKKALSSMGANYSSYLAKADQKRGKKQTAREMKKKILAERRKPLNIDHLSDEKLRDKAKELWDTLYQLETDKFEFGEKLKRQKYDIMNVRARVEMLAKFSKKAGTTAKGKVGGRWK

Compound: C#Cc1cnc2nc(O)n(C(CC)CC)c2n1 [CK-2017357]
- Kd [1]: 40 ± 6 nM
- Kd (slow skeletal troponin): 3800 ± 700 nM
